Results published in the NIST ThermoML archive (doi:10.1021/je060343y).

Key:
[1] = 101 kPa, Liquid
[2] = φn = volume fraction of the nth substance listed; settings: 101 kPa, Liquid

CCOC(C)=O [ethyl acetate]
[1]
Settings | mass density [kg/m3] | speed of sound [m/s]
303.15 K | 888.9 | 1119
308.15 K | 882.6 | 1098
313.15 K | 875.9 | 1081
318.15 K | 869.6 | 1058

CNC(C)=O [N-methylacetamide] + CCOC(C)=O
[2]
Settings | mass density [kg/m3] | speed of sound [m/s]
303.15 K, φ1 = 0.0538 | 893.87 | 1132
303.15 K, φ1 = 0.1843 | 903.06 | 1167
303.15 K, φ1 = 0.2972 | 910.76 | 1197
303.15 K, φ1 = 0.3991 | 917.49 | 1223
303.15 K, φ1 = 0.4982 | 923.67 | 1248
303.15 K, φ1 = 0.594 | 929.3 | 1271
303.15 K, φ1 = 0.6955 | 935.03 | 1295
303.15 K, φ1 = 0.7437 | 937.68 | 1306
303.15 K, φ1 = 0.9463 | 948.19 | 1354
303.15 K, φ1 = 1 | 951.3 | 1367
308.15 K, φ1 = 0.0537 | 887.58 | 1114
308.15 K, φ1 = 0.1841 | 896.86 | 1149
308.15 K, φ1 = 0.2969 | 904.58 | 1180
308.15 K, φ1 = 0.3988 | 911.43 | 1208
308.15 K, φ1 = 0.4979 | 917.94 | 1234
308.15 K, φ1 = 0.5937 | 923.93 | 1259
308.15 K, φ1 = 0.6952 | 930.02 | 1284
308.15 K, φ1 = 0.7434 | 932.86 | 1296
308.15 K, φ1 = 0.9488 | 943.96 | 1348
308.15 K, φ1 = 1 | 945.9 | 1362
313.15 K, φ1 = 0.0534 | 880.97 | 1097
313.15 K, φ1 = 0.1833 | 891.3 | 1132
313.15 K, φ1 = 0.2958 | 899.84 | 1161
313.15 K, φ1 = 0.3976 | 907.15 | 1188
313.15 K, φ1 = 0.4966 | 913.79 | 1214
313.15 K, φ1 = 0.5924 | 920.09 | 1238
313.15 K, φ1 = 0.6941 | 926.71 | 1263
313.15 K, φ1 = 0.7431 | 929.67 | 1274
313.15 K, φ1 = 0.946 | 941.22 | 1322
313.15 K, φ1 = 1 | 943.6 | 1334
318.15 K, φ1 = 0.0533 | 875.13 | 1074
318.15 K, φ1 = 0.1828 | 886.1 | 1113
318.15 K, φ1 = 0.2951 | 894.79 | 1144
318.15 K, φ1 = 0.3968 | 902.46 | 1172
318.15 K, φ1 = 0.4958 | 909.37 | 1198
318.15 K, φ1 = 0.5916 | 915.67 | 1223
318.15 K, φ1 = 0.6934 | 922.12 | 1249
318.15 K, φ1 = 0.7418 | 925.21 | 1261
318.15 K, φ1 = 0.9458 | 937.26 | 1309
318.15 K, φ1 = 1 | 939.9 | 1319

CCOC(=O)CC#N [ethyl cyanoacetate]
[1]
Settings | mass density [kg/m3] | speed of sound [m/s]
303.15 K | 1051.4 | 1397
308.15 K | 1046.5 | 1385
313.15 K | 1040.8 | 1368
318.15 K | 1034.7 | 1359

CCOC(=O)CC#N [ethyl cyanoacetate] + CNC(C)=O
[2]
Settings | mass density [kg/m3] | speed of sound [m/s]
303.15 K, φ2 = 0 | 1051.4 | 1397
303.15 K, φ2 = 0.0529 | 1048.11 | 1396
303.15 K, φ2 = 0.186 | 1036.06 | 1391
303.15 K, φ2 = 0.2745 | 1027.82 | 1389
303.15 K, φ2 = 0.3672 | 1018.95 | 1386
303.15 K, φ2 = 0.4502 | 1010.93 | 1384
303.15 K, φ2 = 0.5435 | 1001.23 | 1380
303.15 K, φ2 = 0.5664 | 998.75 | 1379
303.15 K, φ2 = 0.7307 | 980.97 | 1375
303.15 K, φ2 = 0.8795 | 964.97 | 1370
308.15 K, φ2 = 0 | 1046.5 | 1385
308.15 K, φ2 = 0.0529 | 1041.91 | 1384
308.15 K, φ2 = 0.1862 | 1029.63 | 1380
308.15 K, φ2 = 0.2747 | 1021.42 | 1378
308.15 K, φ2 = 0.3675 | 1012.63 | 1375
308.15 K, φ2 = 0.4504 | 1004.44 | 1373
308.15 K, φ2 = 0.5438 | 994.68 | 1371
308.15 K, φ2 = 0.5666 | 992.26 | 1370
308.15 K, φ2 = 0.7309 | 974.66 | 1367
308.15 K, φ2 = 0.8796 | 958.76 | 1365
313.15 K, φ2 = 0 | 1040.8 | 1368
313.15 K, φ2 = 0.0528 | 1036.3 | 1366
313.15 K, φ2 = 0.1857 | 1024.28 | 1362
313.15 K, φ2 = 0.2741 | 1015.97 | 1359
313.15 K, φ2 = 0.3667 | 1007.36 | 1356
313.15 K, φ2 = 0.4497 | 999.41 | 1353
313.15 K, φ2 = 0.543 | 990.26 | 1349
313.15 K, φ2 = 0.5659 | 987.92 | 1348
313.15 K, φ2 = 0.7303 | 971.38 | 1343
313.15 K, φ2 = 0.8793 | 956.39 | 1337
318.15 K, φ2 = 0 | 1034.7 | 1359
318.15 K, φ2 = 0.0527 | 1030.52 | 1358
318.15 K, φ2 = 0.1854 | 1018.59 | 1356
318.15 K, φ2 = 0.2737 | 1010.48 | 1352
318.15 K, φ2 = 0.3663 | 1001.85 | 1348
318.15 K, φ2 = 0.4492 | 994.13 | 1345
318.15 K, φ2 = 0.5425 | 985.18 | 1341
318.15 K, φ2 = 0.5654 | 982.97 | 1340
318.15 K, φ2 = 0.7299 | 966.83 | 1332
318.15 K, φ2 = 0.8791 | 952.07 | 1324

CCOC(=O)CCl [ethyl chloroethanoate] + CNC(C)=O
[2]
Settings | mass density [kg/m3] | speed of sound [m/s]
303.15 K, φ2 = 0 | 1139.29 | 1229
303.15 K, φ2 = 0.0547 | 1128.33 | 1238
303.15 K, φ2 = 0.154 | 1110.27 | 1252
303.15 K, φ2 = 0.2473 | 1093.79 | 1265
303.15 K, φ2 = 0.2903 | 1085.92 | 1272
303.15 K, φ2 = 0.4356 | 1059.31 | 1293
303.15 K, φ2 = 0.5321 | 1041.12 | 1305
303.15 K, φ2 = 0.6203 | 1024.32 | 1317
303.15 K, φ2 = 0.7118 | 1006.88 | 1329
303.15 K, φ2 = 0.8656 | 977.31 | 1350
308.15 K, φ2 = 0 | 1132.5 | 1212
308.15 K, φ2 = 0.0547 | 1123.26 | 1221
308.15 K, φ2 = 0.154 | 1105.23 | 1235
308.15 K, φ2 = 0.2473 | 1088.2 | 1249
308.15 K, φ2 = 0.2902 | 1080.37 | 1256
308.15 K, φ2 = 0.4356 | 1053.83 | 1277
308.15 K, φ2 = 0.532 | 1036.02 | 1291
308.15 K, φ2 = 0.6202 | 1019.38 | 1304
308.15 K, φ2 = 0.7118 | 1002.05 | 1318
308.15 K, φ2 = 0.8656 | 972.28 | 1342
313.15 K, φ2 = 0 | 1125.9 | 1198
313.15 K, φ2 = 0.0545 | 1115.23 | 1207
313.15 K, φ2 = 0.1535 | 1098.23 | 1220
313.15 K, φ2 = 0.2466 | 1082.14 | 1233
313.15 K, φ2 = 0.2895 | 1074.53 | 1239
313.15 K, φ2 = 0.4347 | 1048.13 | 1259
313.15 K, φ2 = 0.5312 | 1030.46 | 1271
313.15 K, φ2 = 0.6194 | 1014.19 | 1283
313.15 K, φ2 = 0.7111 | 997.15 | 1296
313.15 K, φ2 = 0.8652 | 968.5 | 1317
318.15 K, φ2 = 0 | 1119.9 | 1177
318.15 K, φ2 = 0.0544 | 1109.19 | 1187
318.15 K, φ2 = 0.1533 | 1090.85 | 1202
318.15 K, φ2 = 0.2464 | 1073.98 | 1207
318.15 K, φ2 = 0.2892 | 1066.23 | 1212
318.15 K, φ2 = 0.4344 | 1040.02 | 1231
318.15 K, φ2 = 0.5308 | 1022.75 | 1244
318.15 K, φ2 = 0.6191 | 1007.06 | 1257
318.15 K, φ2 = 0.7108 | 990.68 | 1272
318.15 K, φ2 = 0.865 | 963.31 | 1296

CNC(C)=O [N-methylacetamide] + CCOC(=O)CCl
[2], φ1 = 1
Settings | mass density [kg/m3] | speed of sound [m/s]
303.15 K | 951.3 | 1367
308.15 K | 945.9 | 1362
313.15 K | 943.6 | 1334
318.15 K | 939.9 | 1319

CCOC(=O)CCl [ethyl chloroethanoate]
[1]
Settings | mass density [kg/m3] | speed of sound [m/s]
303.15 K | 1139.29 | 1229
308.15 K | 1132.5 | 1212
313.15 K | 1125.9 | 1198
318.15 K | 1119.9 | 1177

CNC(C)=O [N-methylacetamide] + CCOC(=O)CC#N
[2], φ1 = 1
Settings | mass density [kg/m3] | speed of sound [m/s]
303.15 K | 951.3 | 1367
308.15 K | 945.9 | 1362
313.15 K | 943.6 | 1334
318.15 K | 939.9 | 1319

CCOC(C)=O [ethyl acetate] + CNC(C)=O
[2], φ2 = 0
Settings | mass density [kg/m3] | speed of sound [m/s]
303.15 K | 888.9 | 1119
308.15 K | 882.6 | 1098
313.15 K | 875.9 | 1081
318.15 K | 869.6 | 1058

CNC(C)=O [N-methylacetamide]
[1]
Settings | mass density [kg/m3] | speed of sound [m/s]
303.15 K | 951.3 | 1367
308.15 K | 945.9 | 1362
313.15 K | 943.6 | 1334
318.15 K | 939.9 | 1319
